Test results as given in publication PMC11981944 (Nature, 2025).

Key:
[1] = system: SARS-CoV-2 rWuhan M(P132S); assay type: cell-based
[2] = biological target: SARS-CoV-2 M protein (membrane protein), purified recombinant (SARS-CoV-2, UniProt P0DTC5); test: cryo-EM structure

| Molecule | susceptibility of M(P132S) virus (in words) [1] | binding result [2] |
| --- | --- | --- |
| N#C[C@@]1(c2ccc3c(N)ncnn23)O[C@H](CO)[C@@H](O)[C@H]1O [GS-441524] | remained fully susceptible |  |
| CC(C)(C)[C@H](NC(=O)C(F)(F)F)C(=O)N1C[C@H]2[C@@H]([C@H]1C(=O)N[C@H](C#N)C[C@@H]1CCNC1=O)C2(C)C [Nirmatrelvir] | remained fully susceptible |  |
| Fab-B (Fab, V domains shown) VH: EVQLQQSGPELVKPGASMKISCKTSGYSFTGYTMNWVKQSHGKNLEWIGLINPYNGDTSYNQKFKGKATLTVDKSSSTAYMELLSLTSEDSAVYYCEVINTYWGQGTLVTVSA VL: DIVMTQSPASLAVSLGQRATISCKASQSIDYDGDNYMNWYQQKPGQPPKLLIYTTSNLESGIPARFSGSGSGTDFTLNIHPVEEGDAATYYCQQNNEDPYTFGGGTKLEIK |  | binds |
